# Patent US4087461A, “Anti-androgenic steroids” (The Johns Hopkins University, priority 1977, dated 1978)
# Experiments:
# [1] = tested on: endogenous androgen biosynthesis; assay: study in intact male rats: weights of sex accessory tissue and other organs; type: in vivo, male Sprague-Dawley rats
# Experimental: Studies with intact male Sprague-Dawley rats (300g body weight) are illustrated for compounds (1) and (2).
# Similarly, compound (2), […] rats at a dosage of 20mg per kilo for 7 days produced 20% reduction in weight of the ventral prostate and 28% reduction of the dorsal lateral prostate.
# The following data illustrates the inhibiting effect of estryne and pregnyne on Δ^5 -3-ketosteroid isomerase (EC 5.3.3.1) as evidenced by a depression of the wet weight of the sex accessory tissue in the mature male rat treated with the estryne and pregnyne.
# A. Male rats were used to assess the effect of estryne on endogenous androgen biosynthesis at varying doses (1-20 mg/kg body weight). […] On the eighth day the animals were sacrificed and the ventral prostate, dorsal lateral prostate, seminal vesicles, testes, kidneys, and adrenals were removed and weighed. Samples of each tissue were preserved in 10% buffered formalin for histological examination.
# B. Male rats were treated with 19-norpregnyne by a regimen exactly as described for the estryne.
# [2] = target: Δ^5 -3-ketosteroid isomerase (Comamonas testosteroni, UniProt P00947); assay: inhibition of isomerase by allenic ketones, pseudo first order conditions; type: biochemical, Pseudomonas testosteroni; settings: for half life for loss of enzyme activity / isomerisation of the allenic ketone under assay conditions: allenic ketone 200 μM, 1 mM phosphate buffer, pH = 7; for isomerisation of the allenic ketone under assay conditions: isomerase
# Excerpt: As noted above, the acetylenic compounds of the invention, e.g. estryne and pregnyne, are converted into the corresponding conjugated allenic ketones which then react irreversibly with the enzyme. These allenic ketones are also novel and constitute an important embodiment of the invention. The allenic ketones derived from estryne are 6β(H)-5,10-secoestra-4,5-diene-3,10,17-trione and 6α(H)-5,10-secoestra-4,5-diene-3,10,17-trione. These allenic ketones have been tested as inhibitors of isomerase and have been found effective in this regard.
# [3] = tested on: ventral prostate and dorsal lateral prostate; assay: effects of 6β(H)-allenic ketone on intact male Sprague-Dawley rats: body and prostate weights; type: in vivo; settings: 0.6mg in propylene glycol (0.2ml) daily for 7 days, i.p.
# Experimental: Effects of 6β(H)-5,10-Seco-19-norestra-4,5-diene-3,10,17-trione on intact male Sprague-Dawley rats
# The compound (0.6mg) dissolved in propylene glycol (0.2ml) was administered daily for 7 days by the intraperitoneal route. The experimental group and control group each comprised 5 animals; and weghts of animals as well the wet tissue weights of ventral prostate and dorsal lateral prostate are averaged for each group.
# [4] = tested on: immature uterus; assay: study of estrogenic activity (uterine weight of immature mice); settings: same dosage schedule as estryne
# Experimental: The animals were housed in a temperature controlled room under a constant lighting schedule and maintained on a diet of Charles River Rat Formula and water ad libitum. The diet of the hypophy-sectomized animals was supplemented with organges.
# On the fourth day the uteri were removed and weighed.
# Thus, immature female mice received estryne at doses up to a maximum of 100 μg total dose over three days, and the wet weight of the uteri were determined.
# [5] = listed as 6β(H)-5,10-secoestra-4,5-diene-2,10,17-trione
# Δ^5 -3-ketosteroid isomerase, sequence (P00947 whole entry, stated change not applied): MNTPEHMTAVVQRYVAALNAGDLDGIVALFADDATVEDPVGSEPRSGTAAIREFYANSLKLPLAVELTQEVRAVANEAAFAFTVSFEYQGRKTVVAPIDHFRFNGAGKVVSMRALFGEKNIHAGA
smiles,measurement,setting,value
"C[C@]12CC[C@@H]3C(=O)CCC(=O)CC#CC[C@H]3[C@@H]1CCC2=O [Compound 5, 5,10-secoestr-5-yne-3,10,17-trione]",reduction in weight of the ventral prostate,"[1]; 13mg per kilo per day, s.c. in sesame oil, 7 days",30%
same,Average Weight of Ventral Prostate,"[1]; 13mg/Kg (so in the source) in propylene glycol (0.2ml) per day for 7 days, i.p., control 421 mg",302 mg
same,Average Weight of Ventral Prostate,"[1]; 13mg/Kg in sesame oil (0.2ml) per day for 7 days, s.c., control 238 mg",167 mg
"C[C@]12CC[C@@H]3C(=O)CCC(=O)C=C=CC[C@H]3[C@@H]1CCC2=O [6α(H)-5,10-secoestra-4,5-diene-3,10,17-trione]",half life for loss of enzyme activity,[2],11 min
same,isomerisation of the allenic ketone under assay conditions,[2],partially converted to the β-isomer
"C[C@]12CC[C@@H]3C(=O)CCC(=O)C=C=CC[C@H]3[C@@H]1CCC2=O [6β(H)-5,10-secoestra-4,5-diene-3,10,17-trione]",half life for loss of enzyme activity,[2]; [5],9 min
same,inhibition of isomerase,[2]; in words,effective
same,isomerisation of the allenic ketone under assay conditions,[2]; [5],partially converted to the 6α isomer
same,Wt. of Dorsal Lateral Prostate,[3]; control 299 mg,235 mg
same,Wt. of Ventral Prostate,[3]; control 574 mg,488 mg
same,Wt. of Animals,[3]; control 388 g,382 g
C[C@]12CC[C@@H]3c4ccc(O)cc4CC[C@H]3[C@@H]1CC[C@@H]2O [17β-estradiol],dose giving maximum stimulation (uterine weight),[4],about 8 μg
same,lowest dose giving a positive response (uterine weight),"[4]; ""as low as""",0.67 µg
